Results from ChEMBL document CHEMBL6109106, “Rational design, synthesis and anti-inflammatory activity of 6-substituted dihydrobenzophenanthridine derivatives” (Bioorg Med Chem, 2025).
Calls of active or inactive are those of the source. The calls are words filed in the database; no cut-off is given here.

Tests used:
RAW264.7 [1] = assay: Anti-inflammatory activity in LPS-induced mouse RAW264.7 cells assessed as NO emission at 20 uM preincubated with compound for 1 hrs followed by LPS stimulation and measured after 24 hrs by Griess reagent based analysis (reference value: 14.05 +/- 1.19 microM); type: functional; settings: time 25 hrs
RAW264.7 [2] = assay: Anti-inflammatory activity in LPS-induced mouse RAW264.7 cells assessed as inhibition of NO release at 20 uM preincubated with compound for 1 hrs followed by LPS stimulation and measured after 24 hrs by Griess reagent based analysis (reference value: 0 %); type: functional; settings: for inhibition at 20 µM: Mus musculus; for inhibition (INH): time 25 hrs
[3] = (§1) Cytotoxicity against mouse RAW264.7 cells assessed as survival rate at 20 uM incubated for 24 hrs by MTT assay (reference value: 100 %); type: toxicity, cell-based; settings: RAW264.7 cells, read-out: Survival
RAW264.7 [4] = assay: as §1; type: toxicity, cell-based; settings: raw264.7, 24 h, 20 µM
Mus musculus [5] = assay: Anti-inflammatory activity in DSS-induced acute colitis male C57BL/6 mouse model assessed as reduction in infiltration of inflammatory cells in colon at 200 mg/kg, po administered for 7 days by H and E staining based analysis; type: functional, organism-based; settings: time 7.0 day
Mus musculus [6] = assay: Anti-inflammatory activity in DSS-induced acute colitis male C57BL/6 mouse model assessed as complete colonic mucosa with crypts at 200 mg/kg, po administered for 7 days by H and E staining based analysis; type: functional, organism-based; settings: time 7.0 day
RAW264.7 [7] = assay: Anti-inflammatory activity in LPS-induced mouse RAW264.7 cells assessed as reduction in TNFalpha level preincubated with compound for 1 hrs followed by LPS stimulation and measured after 24 hrs by ELISA; type: functional, cell-based; settings: dose 10-160 µM, time 25.0 hrs
RAW264.7 [8] = assay: Anti-inflammatory activity in LPS-induced mouse RAW264.7 cells assessed as reduction in TNFalpha level at >20 uM preincubated with compound for 1 hrs followed by LPS stimulation and measured after 24 hrs by ELISA; type: functional, cell-based; settings: time 25.0 hrs
RAW264.7 [9] = assay: Cytotoxicity against mouse RAW264.7 cells assessed as reduction in cell viability up to 160 uM incubated for 24 hrs by MTT assay; type: toxicity, cell-based; settings: raw264.7, 24 h
Mus musculus [10] = assay: Anti-inflammatory activity in DSS-induced acute colitis male C57BL/6 mouse model assessed as increase in intestine length at 20 to 80 mg/kg, po administered for 7 days; type: functional, organism-based; settings: dose 20-80 mg/kg, time 7.0 day
Mus musculus [11] = assay: Anti-inflammatory activity in DSS-induced acute colitis male C57BL/6 mouse model assessed as complete colonic mucosa with crypts administered orally for 7 days by H and E staining based analysis; type: functional, organism-based; settings: dose 20-80 mg/kg, route po, time 7.0 day
Mus musculus [12] = assay: Anti-inflammatory activity in DSS-induced acute colitis male C57BL/6 mouse model assessed as decrease in IL6 expression level in colon at 20 to 80 mg/kg, po administered for 7 days by immunohistochemical staining based analysis; type: functional, organism-based; settings: dose 20-80 mg/kg, time 7.0 day
RAW264.7 [13] = assay: Anti-inflammatory activity in LPS-induced mouse RAW264.7 cells assessed as reduction in IL-6 level at >40 uM preincubated with compound for 1 hrs followed by LPS stimulation and measured after 24 hrs by ELISA; type: functional, cell-based; settings: time 25.0 hrs
Mus musculus [14] = assay: Anti-inflammatory activity in DSS-induced acute colitis male C57BL/6 mouse model assessed as decrease in IL1beta expression level in colon at 20 to 80 mg/kg, po administered for 7 days by immunohistochemical staining based analysis; type: functional, organism-based; settings: dose 20-80 mg/kg, time 7.0 day
RAW264.7 [15] = assay: Anti-inflammatory activity in LPS-induced mouse RAW264.7 cells assessed as reduction in IL-6 level preincubated with compound for 1 hrs followed by LPS stimulation and measured after 24 hrs by ELISA; type: functional, cell-based; settings: dose 10-160 µM, time 25.0 hrs
Mus musculus [16] = assay: Anti-inflammatory activity in DSS-induced acute colitis male C57BL/6 mouse model assessed as reduction in infiltration of inflammatory cells in colon administered orally for 7 days by H and E staining based analysis; type: functional, organism-based; settings: dose 20-80 mg/kg, route po, time 7.0 day
Mus musculus [17] = assay: Anti-inflammatory activity in DSS-induced acute colitis male C57BL/6 mouse model assessed as decrease in TNF-alpha expression level in colon at 20 to 80 mg/kg, po administered for 7 days by immunohistochemical staining based analysis; type: functional, organism-based; settings: dose 20-80 mg/kg, time 7.0 day

| SMILES | Activity (RAW264.7 [1]) | inhibition at 20 µM (RAW264.7 [2]; RAW264.7, 25 h) | viability at 24 h, 20 µM [3] | also measured |
| --- | --- | --- | --- | --- |
| C=C(CC1c2c(ccc3c2OCO3)-c2ccc3cc4c(cc3c2N1C)OCO4)C(=O)OC (centres undefined) | 12.66 µM | 9.4% | 111% | – |
| CN1Cc2c(ccc3c2OCO3)-c2ccc3cc4c(cc3c21)OCO4 [DIHYDROSANGUINARINE] | 10.36 µM | – | 88.7% | inhibition at 20 µM (RAW264.7 [2]; RAW264.7, time 25 hrs): 26.1% |
| CCC(C)C1c2c(ccc3c2OCO3)-c2ccc3cc4c(cc3c2N1C)OCO4 (centres undefined) | 13.15 µM | 5.57% | 114% | – |
| COc1ccc2c(c1OC)C(CC(=O)O)N(C)c1c-2ccc2cc3c(cc12)OCO3 (centres undefined) | 9.1 µM | – | – | inhibition (INH) (RAW264.7 [2]): 34.87%; Survival (RAW264.7 [4]): 82.98% |
| COc1ccc2c(c1OC)CN(C)c1c-2ccc2cc3c(cc12)OCO3 [DIHYDROCHELERYTHRINE] | 9.91 µM | 28.9% | 94.3% | – |
| COC(=O)CCC1c2c(ccc(OC)c2OC)-c2ccc3cc4c(cc3c2N1C)OCO4 (centres undefined) | 10.11 µM | 27.5% | 97.7% | – |
| CCC(C)C1c2c(ccc(OC)c2OC)-c2ccc3cc4c(cc3c2N1C)OCO4 (centres undefined) | 11.52 µM | 17% | 91.3% | – |
| CCCCNC(=O)CC1c2c(ccc3c2OCO3)-c2ccc3cc4c(cc3c2N1C)OCO4 (centres undefined) | 10.48 µM | 24.5% | 101% | – |
| CCOC(=O)CC1c2c(ccc(OC)c2OC)-c2ccc3cc4c(cc3c2N1C)OCO4 (centres undefined) | 9.56 µM | 31.3% | 94.4% | – |
| CCOC(=O)CC1c2c(ccc3c2OCO3)-c2ccc3cc4c(cc3c2N1C)OCO4 (centres undefined) | 10.5 µM | 24.5% | 109% | – |
| Nc1ccc(O)c(C(=O)O)c1 | – | – | – | Activity (Mus musculus [5]): Active; Activity (Mus musculus [6]): Active |
| COC(=O)C(C)C1c2c(ccc(OC)c2OC)-c2ccc3cc4c(cc3c2N1C)OCO4 (centres undefined) | 11.2 µM | 19% | 101% | – |
| CN1c2c(ccc3cc4c(cc23)OCO4)-c2ccc3c(c2C1CCO)OCO3 (centres undefined) | 11.57 µM | 10.1% | 160% | – |
| COc1ccc2c(c1OC)C(CC(=O)Nc1ccccc1)N(C)c1c-2ccc2cc3c(cc12)OCO3 (centres undefined) | 8.16 µM | 41.6% | 136% | Activity (RAW264.7 [7]): Dose-dependent-effect; Activity (RAW264.7 [8]): Active; Activity (RAW264.7 [9]): Non-toxic; Activity (Mus musculus [10]): Active; Activity (Mus musculus [11]): Dose-dependent-effect; Activity (Mus musculus [12]): Active; Activity (RAW264.7 [13]): Active; Activity (Mus musculus [14]): Active; Activity (RAW264.7 [15]): Dose-dependent-effect; Activity (Mus musculus [16]): Dose-dependent-effect; Activity (Mus musculus [17]): Active |
| CN1c2c(ccc3cc4c(cc23)OCO4)-c2ccc3c(c2C1CC(=O)[O-])OCO3.[Na+] (centres undefined) | 11.66 µM | 16.1% | 91.8% | – |
| CCCOC(=O)C(C)C1c2c(ccc(OC)c2OC)-c2ccc3cc4c(cc3c2N1C)OCO4 (centres undefined) | 12.5 µM | 10.3% | 122% | – |
| CN1c2c(ccc3cc4c(cc23)OCO4)-c2ccc3c(c2C1CC(=O)O)OCO3 (centres undefined) | 9.55 µM | – | – | inhibition (INH) (RAW264.7 [2]): 31.45%; Survival (RAW264.7 [4]): 93.19% |
| CCCCNC(=O)CC1c2c(ccc(OC)c2OC)-c2ccc3cc4c(cc3c2N1C)OCO4 (centres undefined) | 8.22 µM | 41.1% | 92.1% | – |
| COC(=O)CCC1c2c(ccc3c2OCO3)-c2ccc3cc4c(cc3c2N1C)OCO4 (centres undefined) | 10.94 µM | 21.4% | 110% | – |
| COc1ccc2c(c1OC)C(CC(=O)[O-])N(C)c1c-2ccc2cc3c(cc12)OCO3.[Na+] (centres undefined) | 12.98 µM | – | 98.8% | inhibition (INH) (RAW264.7 [2]): 6.77% |
| COc1ccc2c(c1OC)C(CCO)N(C)c1c-2ccc2cc3c(cc12)OCO3 (centres undefined) | 9.75 µM | 30.1% | 103% | – |
| CN1c2c(ccc3cc4c(cc23)OCO4)-c2ccc3c(c2C1CC(=O)Nc1ccccc1)OCO3 (centres undefined) | 9.28 µM | 33.1% | 125% | – |
| C=C(CC1c2c(ccc(OC)c2OC)-c2ccc3cc4c(cc3c2N1C)OCO4)C(=O)OC (centres undefined) | 10.14 µM | 27.2% | 130% | – |
